How the values were obtained:
[1] = format: physicochemical
From the text: In one embodiment, the liquid phase of the slurry comprises water and up to 25%, for example between 15% and 23%, of ethanol. This ethanol will pre-dissolve a very small portion of the antimicrobial agents from the particles, giving the injected slurry a small but almost instantaneous punch.

[2] = pH in the fermenters; cited from earlier work
[3] = tested on: L. plantarum; test: development of resistance test, 10 week duration; format: cell-based; conditions: 10 week duration of the test
From the text: One very effective control program involves the introduction of pristinamycin-type antimicrobial agents, and particularly virginiamycin, to the process. […] Usually, the “waste” byproduct, known as “Dried Distillers Grains with solubles (DDGS), is sold as animal feed, going 45% to dairy, 35% to beef, 15% to swine, and 5% to poultry industries. This is an important factor in the profitability of an ethanol production process, and the total amount of this byproduct produced per year is on the order of 3.5 million metric tons per year. The presence of residual antimicrobial agents in this material can adversely affect the value of this byproduct, as small residual amounts of antimicrobial agents in feed will promote the development of agent-resistant microorganisms. We have tested DDG samples from 8 major ethanol producers using virginiamycin to control microorganisms and found no detectable amount of virginiamycin in the DDG (<1 ppm via the validated Eurofins analysis and <1 ppb via an unvalidated experimental analytical procedure). […] Generally, however, the virginiamycin in mash is destroyed by drying so virginiamycin must be re-added to the feed if so desired. Other effective control programs employ polyether ionophore antimicrobial agents, which provide many of the benefits obtained with pristinamycin-type antimicrobial agents. […]

[4] = dissolution of 0.1 gram powder in 4 liters of stirred water; format: physicochemical; conditions: 5.2 to 10 micron average particle size, 0.1 gram in 4 liters water, continuously stirred
From the text: The over-riding factor in controlling pests such as lactobacilli, however, is the rate of dissolution of small granular pristinamycin-type antimicrobial agents and polyether ionophore-type antimicrobial agents in water or mash. A 0.1 gram sample of a 5.2 to 10 micron average particle size virginiamycin was placed in a beaker with 4 liters of water, and the composition was continuously and vigorously stirred (providing very good mixing and turbulence). The presence of undissolved crystals was very evident. […] Such slow dissolution will reduce effectiveness of pulse treatments as it takes a long time for the added agents to become solubilized and effective, and will reduce the highest concentration of added agents resulting from a pulsed addition as some of the agent may be removed from the fermentator or other tank before the maximum amount of added agent is solubilized, and because some added agent may not dissolve at all. The solubility of monensin, virginiamycin, and similar pristinamycin-type antimicrobial agents and polyether ionophore-type antimicrobial agents in water is very low. Much more important, however, is the rate of dissolution of small granular pristinamycin-type antimicrobial agents and polyether ionophore-type antimicrobial agents in water. […]

[5] = stability in water (hydrolysis); format: physicochemical
Protocol: In another embodiment at least a portion of said antimicrobial agent is added to the mash as a composition comprising particles comprising said substantially water insoluble antimicrobial agent(s), said composition being in the form of a slurry. In another embodiment at least a portion of said antimicrobial agent is added to the mash as a composition comprising particles comprising said substantially water insoluble antimicrobial agent(s) and having a weight mean average diameter of between 0.1 and 2 microns, said composition being in the form of a slurry. Many of the preferred antimicrobial agents have a slight instability when dissolved in water, which can be significant over long storage periods. […] Coating particles with protectorants will reduce stability problems. Placing the slurry in a […] substantially water-free material, be it fatty acids, surfactants, dispersants, solvents in which the antimicrobial agents have minimal solubility (called an “oil flowable slurry”), or any combination of the above can reduce loss of antimicrobial agent. […] An oil-flowable slurry can be readily prepared by milling the antimicrobial agents as described herein, but where the solvent replaces the water in the milling process. […]

[6] = cited from earlier work

For CC[C@@]1([C@@H]2O[C@@H]([C@H]3O[C@@](O)(CO)[C@H](C)C[C@@H]3C)C[C@@H]2C)CC[C@H]([C@]2(C)CC[C@]3(C[C@H](O)[C@@H](C)[C@@H]([C@@H](C)[C@@H](OC)[C@H](C)C(=O)O)O3)O2)O1 [monensin], the solubility in water/ethanol [1] was “high solubility”.

In the case of [H]/N=C(/N)N[C@H]1[C@H](O)[C@@H](O)[C@H](O[C@@H]2O[C@@H](C)[C@](O)(C=O)[C@H]2O[C@@H]2O[C@@H](CO)[C@H](O)[C@@H](O)[C@@H]2NC)[C@@H](N/C(N)=N\[H])[C@@H]1O [streptomycin], the “inactivation at fermenter pH” value [2] is listed as “partially inactivated”.

For penicillin, the “inactivation at fermenter pH” value [2] is listed as “partially inactivated”.

In the case of virginiamycin, the “time for L. plantarum to develop resistance” value [3] is reported as “no development of resistance”, the “time before only a few crystals remained visible” value [4] is reported as “on the order of an hour” and the “stability when in water” value [5] is reported as “slow hydrolysis”. For the same molecule, the solubility in water/ethanol [1] was “high solubility” and the solubility in water [6] was 0.0001 grams/l.
